Measured values published in paper PMC8379669 (Computational and Structural Biotechnology Journal, 2021).

Columns and labels:
[1] = target: AChE from Electrophorus electricus (electric eel) (Electrophorus electricus, UniProt O42275); assay: In vitro AChE inhibition assay; assay type: biochemical
BChE from equine serum = BChE from equine serum (Equus caballus, UniProt P81908); assay: biochemical; assay type: biochemical; conditions: for IC50 values (mean ± SD) BChE: BChE from equine serum
AChE = conditions: read-out: IC50 (AChEI); cited from earlier work
[2] = target: GluN2B containing NMDAR (GluN1/GluN2B) in HEK-293 cells (Homo sapiens, UniProt Q05586+Q13224); assay: Cell-based NMDAR activity assay; conditions: for inhibition at 100 µM / inhibition at 50 µM: HEK293, read-out: inhibition of NMDAR activity; for category of NMDAR inhibitor: based on NMDAR IC50; for antagonism of NMDAR activity, in words: initial screening studies; for number of punctate cells: 5 μM, with NMDAR agonists and Ca2+ (Fig. 2B)
Chain of GluN2B containing NMDAR (GluN1/GluN2B) in HEK-293 cells (Q13224 27-1484, species assumed, other chains not shown): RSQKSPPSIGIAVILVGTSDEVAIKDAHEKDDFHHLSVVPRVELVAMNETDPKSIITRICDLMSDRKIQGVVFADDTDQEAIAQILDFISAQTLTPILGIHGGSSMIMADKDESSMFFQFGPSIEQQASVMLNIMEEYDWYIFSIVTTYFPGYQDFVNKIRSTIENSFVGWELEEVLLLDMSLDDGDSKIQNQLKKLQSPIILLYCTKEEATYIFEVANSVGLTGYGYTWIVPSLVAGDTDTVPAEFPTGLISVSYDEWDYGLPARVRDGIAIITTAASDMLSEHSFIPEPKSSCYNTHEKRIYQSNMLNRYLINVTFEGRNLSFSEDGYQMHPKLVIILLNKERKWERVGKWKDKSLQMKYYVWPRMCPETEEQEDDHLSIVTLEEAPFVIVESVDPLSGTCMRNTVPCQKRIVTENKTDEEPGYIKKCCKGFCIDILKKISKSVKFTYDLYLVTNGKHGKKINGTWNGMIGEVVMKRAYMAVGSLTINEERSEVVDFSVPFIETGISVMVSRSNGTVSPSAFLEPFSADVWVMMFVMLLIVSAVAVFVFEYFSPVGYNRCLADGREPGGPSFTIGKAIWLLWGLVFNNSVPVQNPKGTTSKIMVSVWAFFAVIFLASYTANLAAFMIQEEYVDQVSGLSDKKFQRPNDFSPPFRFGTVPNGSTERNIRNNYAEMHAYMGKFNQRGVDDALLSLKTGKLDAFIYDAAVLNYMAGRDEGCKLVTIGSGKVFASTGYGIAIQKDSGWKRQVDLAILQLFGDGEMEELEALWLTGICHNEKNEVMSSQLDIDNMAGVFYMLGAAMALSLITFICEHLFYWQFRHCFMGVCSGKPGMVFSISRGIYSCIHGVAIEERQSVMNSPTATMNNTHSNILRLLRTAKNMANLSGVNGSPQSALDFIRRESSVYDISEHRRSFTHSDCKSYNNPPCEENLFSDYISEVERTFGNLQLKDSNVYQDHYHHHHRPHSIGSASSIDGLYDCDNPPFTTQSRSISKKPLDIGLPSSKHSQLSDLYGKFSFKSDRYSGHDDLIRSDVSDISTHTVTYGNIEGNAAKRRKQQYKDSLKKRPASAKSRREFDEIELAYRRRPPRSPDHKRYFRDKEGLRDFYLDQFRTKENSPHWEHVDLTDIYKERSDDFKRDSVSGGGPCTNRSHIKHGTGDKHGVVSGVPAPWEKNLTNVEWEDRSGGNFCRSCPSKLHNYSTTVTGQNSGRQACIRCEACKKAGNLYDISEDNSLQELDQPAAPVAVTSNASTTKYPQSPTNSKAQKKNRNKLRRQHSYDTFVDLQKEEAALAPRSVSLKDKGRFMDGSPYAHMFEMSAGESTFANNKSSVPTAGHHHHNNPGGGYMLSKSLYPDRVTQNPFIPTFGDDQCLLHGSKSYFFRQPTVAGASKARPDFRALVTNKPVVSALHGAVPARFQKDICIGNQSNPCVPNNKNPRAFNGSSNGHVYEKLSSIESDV

[3] = system: rat primary cortical neurons; assay: Glutamate-induced excitotoxicity, MTT assay; assay type: cell-based; conditions: DIV9 neurons, glutamate 3 h, MTT after 24 h; pre-treatment with compounds
[4] = system: rat primary cortical neurons; assay: Glutamate-induced excitotoxicity, MAP2 immunostaining and DAPI staining; assay type: cell-based; conditions: DIV9 neurons, 100 µM glutamate and 10 µM glycine
[5] = system: MSG induced cognitive impairment in rats; assay: Morris water maze test in MSG treated rats; assay type: in vivo; conditions: rat, IP, 3 mg/Kg body weight with MSG 4 g/Kg; vs MSG alone
rat liver = assay: In vivo hepatotoxicity assessment by liver histopathology; conditions: IP, 15 days; for liver histopathology (H&E), in words: 201 3 mg/Kg, 208 1 mg/Kg, tacrine 5 mg/Kg
HepG2 cells = assay: MTT cytotoxicity assay on HepG2 cells; conditions: 24 h; for cytotoxicity on HepG2 cells, in words: 10-300 μM
NMDAR = conditions: read-out: IC50 NMDAR, reported value; cited from earlier work

Chain of BChE from equine serum (P81908 whole entry): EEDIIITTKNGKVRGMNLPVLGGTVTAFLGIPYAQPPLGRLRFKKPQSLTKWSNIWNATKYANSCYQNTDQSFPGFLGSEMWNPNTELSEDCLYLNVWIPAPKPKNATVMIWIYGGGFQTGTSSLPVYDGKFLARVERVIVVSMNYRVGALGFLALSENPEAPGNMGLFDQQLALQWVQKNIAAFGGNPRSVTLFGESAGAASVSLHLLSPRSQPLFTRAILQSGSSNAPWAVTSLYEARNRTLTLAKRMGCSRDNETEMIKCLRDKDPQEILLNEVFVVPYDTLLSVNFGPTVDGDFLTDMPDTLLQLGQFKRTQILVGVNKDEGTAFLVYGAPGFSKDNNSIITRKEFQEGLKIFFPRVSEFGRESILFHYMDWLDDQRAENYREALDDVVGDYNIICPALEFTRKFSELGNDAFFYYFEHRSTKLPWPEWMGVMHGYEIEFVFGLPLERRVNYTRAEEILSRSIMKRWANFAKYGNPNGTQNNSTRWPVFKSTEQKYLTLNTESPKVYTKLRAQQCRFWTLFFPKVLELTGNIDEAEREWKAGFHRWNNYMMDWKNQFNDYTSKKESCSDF
Chain of AChE from Electrophorus electricus (electric eel) (O42275 24-633): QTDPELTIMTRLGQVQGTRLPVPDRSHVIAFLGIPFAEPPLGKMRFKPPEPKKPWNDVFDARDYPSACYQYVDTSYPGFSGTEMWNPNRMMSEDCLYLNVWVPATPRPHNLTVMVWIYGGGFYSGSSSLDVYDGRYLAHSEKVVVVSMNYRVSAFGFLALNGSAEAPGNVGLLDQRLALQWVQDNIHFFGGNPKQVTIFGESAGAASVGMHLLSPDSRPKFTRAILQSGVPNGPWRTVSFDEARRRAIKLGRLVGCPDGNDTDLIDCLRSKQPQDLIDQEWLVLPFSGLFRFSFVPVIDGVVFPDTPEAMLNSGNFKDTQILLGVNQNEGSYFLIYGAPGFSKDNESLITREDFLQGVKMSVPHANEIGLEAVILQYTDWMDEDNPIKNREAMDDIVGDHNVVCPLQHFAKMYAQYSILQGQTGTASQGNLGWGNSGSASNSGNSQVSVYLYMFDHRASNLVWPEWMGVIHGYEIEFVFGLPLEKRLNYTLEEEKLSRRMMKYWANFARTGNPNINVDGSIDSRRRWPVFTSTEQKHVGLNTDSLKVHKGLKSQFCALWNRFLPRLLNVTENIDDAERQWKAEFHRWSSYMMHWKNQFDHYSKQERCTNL

| Structure (SMILES) | IC50 [1] | IC50 (BChE from equine serum) | IC50 values (mean ± SD) BChE (BChE from equine serum) | IC50 [2] | inhibition at 100 µM [2] | antagonism of NMDAR activity, in words [2] | cytotoxicity on HepG2 cells, in words (HepG2 cells) | further results |
| --- | --- | --- | --- | --- | --- | --- | --- | --- |
| NNC(=O)C1CCc2nc3cc(Br)ccc3c(N)c2C1 (stereo not shown) [Compound 8, 9-Amino-6-bromo-1,2,3,4-tetrahydroacridine-2-carbohydrazide] | 0.138 ± 0.0161 µM | 20.4 ± 2.11 µM | – | – | – | – | – | – |
| Cn1cc(-c2ccc3c(N)c4c(nc3c2)CCCC4)cn1 [Compound 201, 6-(1-methyl-1H-pyrazol-4-yl)-1,2,3,4-tetrahydroacridin-9-amine] | 0.0409 ± 0.00482 µM | 0.85 ± 0.01 µM | submicromolar | 15.2 ± 6.14 µM | ~100% | effective in antagonizing NMDAR activity | non-toxic | category of NMDAR inhibitor [2]: moderate (moderate (IC50 < 20 μM)); reduction in neuronal viability by glutamate (MTT assay) [3]: averted; condensed nuclei / viable cells (DAPI staining) after glutamate [4]: clear decrease in the number of condensed nuclei; decrease in MAP2 positive cells and loss of neuronal architecture caused by glutamate [4]: prevented; escape latency in MWM, 5 days [5]: significantly reduced the escape latency; liver histopathology (H&E), in words (rat liver): did not show any change in the liver architecture |
| Nc1c2c(nc3cc(-c4cccnc4)ccc13)CCCC2 [Compound 214, 6-(pyridin-3-yl)-1,2,3,4-tetrahydroacridin-9-amine] | 0.0494 ± 0.00237 µM | 0.82 ± 0.09 µM | submicromolar | 38.8 ± 9.64 µM | – | effective in antagonizing NMDAR activity | non-toxic | – |
| N#Cc1ccc(-c2ccc3c(N)c4c(nc3c2)CCCC4)cc1 [Compound 205, 4-(9-amino-5,6,7,8-tetrahydroacridin-3-yl)benzonitrile] | 0.0842 ± 0.0018 µM | 0.7 ± 0.08 µM | submicromolar | 2.84 ± 0.46 µM | ~100% | effective in antagonizing NMDAR activity | slight toxicity | – |
| CCOC(=O)C1CCc2nc3ccccc3c(N)c2C1 (stereo not shown) [Compound 16, ethyl 9-amino-1,2,3,4-tetrahydroacridine-2-carboxylate] | 0.0422 ± 0.0027 µM | 3.82 ± 0.25 µM | – | – | – | could not effectively block NMDAR activity | – | – |
| CCOC(=O)C1CCc2nc3cc(Br)ccc3c(N)c2C1 (stereo not shown) [Compound 5, Ethyl 9-amino-6-bromo-1,2,3,4-tetrahydroacridine-2-carboxylate] | 0.1 ± 0.0072 µM | 7.38 ± 0.21 µM | – | – | – | – | – | – |
| NNC(=O)C1CCc2nc3ccccc3c(N)c2C1 (stereo not shown) [Compound 17, 9-amino-1,2,3,4-tetrahydroacridine-2-carbohydrazide] | 0.0193 ± 0.00047 µM | – | – | – | – | could not effectively block NMDAR activity | – | – |
| Nc1c2c(nc3ccccc13)CCCC2 [tacrine, reference compound] | – | – | – | – | – | – | – | IC50 (NMDAR): 193 ± 33 µM; concentration up to which safe on HepG2 cells (HepG2 cells): up to 50 µM; reduction in cell viability (HepG2 cells; HepG2, 300 µM): ~50% |
| Nc1c2c(nc3cc(-c4ccc(C(F)(F)F)cc4)ccc13)CCCC2 [Compound 211, 6-(4-(trifluoromethyl)phenyl)-1,2,3,4-tetrahydroacridin-9-amine] | 0.0746 ± 0.00829 µM | 3.97 ± 0.71 µM | – | 0.49 ± 0.14 µM | ~100% | effective in antagonizing NMDAR activity | slight toxicity | number of punctate cells [2]: Reduction in the number of punctate cells; inhibition at 50 µM [2]: ~100%; category of NMDAR inhibitor [2]: potent (potent (IC50 < 5 μM)); condensed nuclei / viable cells (DAPI staining) after glutamate [4]: clear decrease in the number of condensed nuclei; decrease in MAP2 positive cells and loss of neuronal architecture caused by glutamate [4]: prevented |
| Nc1c2c(nc3cc(-c4cc[nH]n4)ccc13)CCCC2 [Compound 204, 6-(1H-pyrazol-3-yl)-1,2,3,4-tetrahydroacridin-9-amine] | 0.137 ± 0.00735 µM | 0.96 ± 0.07 µM | submicromolar | 14.6 ± 4.32 µM | ~100% | effective in antagonizing NMDAR activity | non-toxic | – |
| Nc1c2c(nc3cc(-c4ccc(OC(F)(F)F)cc4)ccc13)CCCC2 [Compound 206, 6-(4-(trifluoromethoxy)phenyl)-1,2,3,4-tetrahydroacridin-9-amine] | 0.184 ± 0.0192 µM | 1.21 ± 0.16 µM | – | 9.19 ± 2.68 µM | ~100% | effective in antagonizing NMDAR activity | – | – |
| Nc1c2c(nc3cc(-c4ccoc4)ccc13)CCCC2 [Compound 212, 6-(furan-3-yl)-1,2,3,4-tetrahydroacridin-9-amine] | 0.0536 ± 0.00439 µM | 0.99 ± 0.05 µM | submicromolar | 16.4 ± 2.76 µM | – | effective in antagonizing NMDAR activity | non-toxic | – |
| Nc1c2c(nc3cc(-c4ccccc4F)ccc13)CCCC2 [Compound 208, 6-(2-fluorophenyl)-1,2,3,4-tetrahydroacridin-9-amine] | 0.0751 ± 0.00946 µM | 0.13 ± 0.02 µM | submicromolar | 0.31 ± 0.09 µM | ~100% | effective in antagonizing NMDAR activity | – | selectivity between AChE and BChE, in words ([1]; AChE from electric eel vs BChE from equine serum): comparable inhibitory potency towards both AChE and BChE; fold higher NMDAR inhibitory potency compared to reported value for tacrine [2]: ~600 fold; number of punctate cells [2]: Reduction in the number of punctate cells; inhibition at 50 µM [2]: ~100%; category of NMDAR inhibitor [2]: potent (potent (IC50 < 5 μM)); reduction in neuronal viability by glutamate (MTT assay) [3]: averted; condensed nuclei / viable cells (DAPI staining) after glutamate [4]: clear decrease in the number of condensed nuclei; decrease in MAP2 positive cells and loss of neuronal architecture caused by glutamate [4]: prevented; animals showing mild periportal inflammation or congestion (rat liver): 5 out of 6 animals; liver histopathology (H&E), in words (rat liver): mild periportal inflammation or mild congestion |
| C[C@]12N[C@H](Cc3ccccc31)c1ccccc12 [MK-801, reference compound] | – | – | – | – | – | – | – | condensed nuclei / viable cells (DAPI staining) after glutamate [4]: prevented |
| CCOC(=O)C1CCc2nc3cc(-c4cnn(C)c4)ccc3c(N)c2C1 (stereo not shown) [Compound 10, Ethyl-9-amino-6-(1-methyl-1H-pyrazol-4-yl)-1,2,3,4-tetrahydroacridine-2-carboxylate] | 0.107 ± 0.0087 µM | 4.39 ± 0.28 µM | – | 31.1 ± 4.8 µM | – | – | – | – |
| CCOC(=O)C1CCc2nc3cc(-c4ccc(F)cc4)ccc3c(N)c2C1 (stereo not shown) [Compound 107, ethyl 9-amino-6-(4-fluorophenyl)-1,2,3,4-tetrahydroacridine-2-carboxylate] | 0.135 ± 0.0103 µM | 1.35 ± 0.09 µM | – | 15.8 ± 3.44 µM | – | – | – | – |
| CSc1ccc(-c2ccc3c(N)c4c(nc3c2)CCCC4)cc1 [Compound 210, 6-(4-(methylthio)phenyl)-1,2,3,4-tetrahydroacridin-9-amine] | 0.149 ± 0.0168 µM | 0.94 ± 0.12 µM | submicromolar | 0.27 ± 0.05 µM | ~100% | effective in antagonizing NMDAR activity | – | fold higher NMDAR inhibitory potency compared to reported value for tacrine [2]: ~600 fold; inhibition at 50 µM [2]: ~100%; category of NMDAR inhibitor [2]: potent (potent (IC50 < 5 μM)); reduction in neuronal viability by glutamate (MTT assay) [3]: averted; condensed nuclei / viable cells (DAPI staining) after glutamate [4]: clear decrease in the number of condensed nuclei; decrease in MAP2 positive cells and loss of neuronal architecture caused by glutamate [4]: prevented |
| Nc1c2c(nc3cc(-c4cncnc4)ccc13)CCCC2 [Compound 203, 6-(pyrimidin-5-yl)-1,2,3,4-tetrahydroacridin-9-amine] | 0.0185 ± 0.00209 µM | 1.5 ± 0.2 µM | – | 28.1 ± 5.1 µM | – | effective in antagonizing NMDAR activity | slight toxicity | – |
| CNC(=O)C1CCc2nc3cc(-c4cnn(C)c4)ccc3c(N)c2C1 (stereo not shown) [Compound 14, 9-amino-N-methyl-6-(1-methyl-1H-pyrazol-4-yl)-1,2,3,4-tetrahydroacridine-2-carboxamide] | 0.132 ± 0.0077 µM | 16.4 ± 0.54 µM | – | 33.9 ± 8.41 µM | – | – | non-toxic | category of NMDAR inhibitor [2]: reduced; condensed nuclei / viable cells (DAPI staining) after glutamate [4]: clear decrease in the number of condensed nuclei; decrease in MAP2 positive cells and loss of neuronal architecture caused by glutamate [4]: prevented |
| Nc1c2c(nc3cc(-c4ccc(F)cc4)ccc13)CCCC2 [Compound 209, 6-(4-fluorophenyl)-1,2,3,4-tetrahydroacridin-9-amine] | 0.076 ± 0.00379 µM | 1.03 ± 0.17 µM | – | 3.36 ± 0.86 µM | ~100% | effective in antagonizing NMDAR activity | non-toxic | fold increase in NMDAR potency compared to 107 [2]: About 4 fold; inhibition at 50 µM [2]: ~100% |
